The test system of this test is Koi. As to the kind of experiment: Feeding of toxic pellets to Koi in aquatic tanks (consumption, mortality). The following applies: juvenile Koi. Type of test: in vivo.

SMILES strings stand for the structures.

In the case of `[O]=[Ca]` [calcium oxide], the “mortality / toxicity” value is “did not kill Koi”.

On to `CC(=O)Nc1ccc(O)cc1` [acetaminophen], for which the “mortality / toxicity” value was “None of the Koi died”.
